Measurements: patent publication US9556169B2, “Compounds and compositions for the treatment of parasitic diseases” (NOVARTIS AG, priority 2012, dated 2017)
Like-named read-outs stand apart in the source and are kept apart here.

System: P. falciparum (NF54 or 3D7 strain)
Experiment: P. falciparum proliferation assay in infected human blood cells (SYBR Green)
Type: cell-based
Details: Plasmodium falciparum
Method: Assay for P. falciparum Proliferation in Infected Human Blood Cells
Compounds of the invention can be assayed to measure their capacity to inhibit proliferation of P. falciparum parasitemia in infected red blood cells. This parasite proliferation assay measures the increase in parasite DNA content using a DNA intercalating dye, SYBR Green® (INVITROGEN®) which has a high affinity for double stranded DNA.
NF54 or 3D7 P. falciparum strain is grown in complete culturing media until parasitemia reaches 3% to 8% with O+ human erythrocytes. […] 20 μl of screening media is dispensed into 384 well assay plates. 50 nl of compounds of the invention (in DMSO), including antimalarial controls (mefloquine, pyrimethamine and artemisinin), are then transferred into the assay plates, as well as DMSO alone to serve as a negative control for inhibition. Then 30 μl of a suspension of a NF54 or 3D7 P. falciparum infected erythrocytes in screening media is dispensed into the assay plates such that the final hematocrit is 2.5% with a final parasitemia of 0.3%. The plates are placed in a 37° C. incubator for 72 hours in a low oxygen environment containing 93% N2, 4% CO2, and 3% O2 gas mixture. 10 μl of lysis buffer (saponin, triton-X, EDTA) containing a 10× solution of SYBR Green I® in RPMI media is dispensed into the plates. The plates are lidded and kept at room temperature overnight for the lysis of the infected red blood cells. The fluorescence intensity is measured (excitation 425 nm, emission 530 nm) using the Envision™ system (Perkin Elmer). The percentage inhibition of 50%, EC50, is calculated for each compound.

[1] = read-out: EC50, P. falciparum Proliferation Assay
[2] = Erythrocyte, infected human erythrocytes, 72 hours, SYBR Green fluorescence, read-out: EC50 (nM), inhibitory efficacy in delaying P. falciparum proliferation in infected human blood cells

Structure (SMILES) | EC50 [2] [nM] | also measured
CN(C(=O)c1ccn2ncc(-c3cnc4[nH]ccc4c3)c2c1)c1ccc(C#N)cc1 [Example 40, N-(4-cyanophenyl)-N-methyl-3-(1H-pyrrolo[2,3-b]pyridin-5-yl)pyrazolo[1,5-a]pyridine-5-carboxamide] | – | EC50 [1]: < 5 nM
CN(C(=O)c1ccn2ncc(-c3ccc(N)nc3)c2c1)c1ccc(C#N)cc1 [Example 41, 3-(6-aminopyridin-3-yl)-N-(4-cyanophenyl)-N-methylpyrazolo[1,5-a]pyridine-5-carboxamide] | – | EC50 [1]: < 5 nM
C[C@@H](N)C(=O)Nc1ccc(-c2cnn3ccc(C(=O)N(C)c4ccc(C#N)cc4)cc23)cc1 [Example 44, (R)-3-(4-(2-aminopropanamido)phenyl)-N-(4-cyanophenyl)-N-methylpyrazolo[1,5-a]pyridine-5-carboxamide] | – | EC50 [1]: < 5 nM
CN(C(=O)c1ccn2ncc(-c3cnc4[nH]ccc4c3)c2c1)c1ccc(C#N)cn1 [Example 53, N-(5-cyanopyridin-2-yl)-N-methyl-3-(1H-pyrrolo[2,3-b]pyridin-5-yl)pyrazolo[1,5-a]pyridine-5-carboxamide] | – | EC50 [1]: < 5 nM
CN(C(=O)c1ccn2ncc(-c3cnc(N)nc3)c2c1)c1ccc(C#N)cc1 [Example 83, 3-(2-aminopyrimidin-5-yl)-N-(4-cyanophenyl)-N-methylpyrazolo[1,5-a]pyridine-5-carboxamide] | – | EC50 [1]: < 5 nM
CN(C(=O)c1ccn2ncc(-c3ccc(C(=O)O)cc3)c2c1)c1ccc(C#N)cn1 [Example 101, 4-(5-((5-Cyanopyridin-2-yl)(methyl)carbamoyl)pyrazolo[1,5-a]pyridin-3-yl)benzoic acid] | 6160 | –
N#Cc1ccc(N(CCO)C(=O)c2ccn3ncc(-c4ccc(C(N)=O)cc4)c3c2)cc1 [Example 105, 3-(4-Carbamoylphenyl)-N-(4-cyanophenyl)-N-(2-hydroxyethyl)pyrazolo[1,5-a]pyridine-5-carboxamide] | 935 | –
CNC(=O)c1ccc(-c2cnn3ccc(C(=O)Nc4ccc(C#N)cn4)cc23)cc1 [Example 106, N-(5-Cyanopyridin-2-yl)-3-(4-(methylcarbamoyl)phenyl)pyrazolo[1,5-a]pyridine-5-carboxamide] | 521 | –
CC(C)NC(=O)c1ccc(-c2cnn3ccc(C(=O)N(c4ccc(C#N)cn4)C4CC4)cc23)cc1 [Example 121, N-(5-Cyanopyridin-2-yl)-N-cyclopropyl-3-(4-(isopropylcarbamoyl)phenyl)pyrazolo[1,5-a]pyridine-5-carboxamide] | 1160 | –
CNC(=O)c1ccc(-c2cnn3ccc(C(=O)N(C)c4ccc(OC)nc4)cc23)cc1 [Example 122, N-(6-Methoxypyridin-3-yl)-N-methyl-3-(4-(methylcarbamoyl)phenyl)pyrazolo[1,5-a]pyridine-5-carboxamide] | > 10000 | –
N#Cc1ccc(N(C(=O)c2ccn3ncc(-c4ccc(C(=O)NC5CC5)cc4)c3c2)C2CC2)nc1 [Example 123, N-(5-Cyanopyridin-2-yl)-N-cyclopropyl-3-(4-(cyclopropylcarbamoyl)phenyl)pyrazolo[1,5a]pyridine-5-carboxamide] | 393 | –
CNC(=O)c1ccc(-c2cnn3ccc(C(=O)N(c4ccc(C(=O)O)cn4)C4CC4)cc23)cc1 [Example 128, 6-(N-Cyclopropyl-3-(4-(methylcarbamoyl)phenyl)pyrazolo[1,5-a]pyridine-5-carboxamido) nicotinic acid] | 4270 | –
CNC(=O)c1ccc(-c2cnn3ccc(C(=O)N(c4ccc(C(N)=O)cn4)C4CC4)cc23)cc1 [Example 129, N-(5-Carbamoylpyridin-2-yl)-N-cyclopropyl-3-(4-(methylcarbamoyl)phenyl)pyrazolo[1,5-a]pyridine-5-carboxamide] | 2440 | –
N#Cc1ccc(N(C(=O)c2ccn3ncc(-c4ccc(C(N)=O)cn4)c3c2)C2CC2)cc1 [Example 142, 3-(5-Carbamoylpyridin-2-yl)-N-(4-cyanophenyl)-N-cyclopropylpyrazolo[1,5-a]pyridine-5-carboxamide] | – | EC50 (Erythrocyte, 72 h, read-out: EC50 (nM), inhibitory efficacy in delaying P. falciparum proliferation in infected human blood cells): 48 nM

Further lines, with some results ahead:

EC50 [2] [nM] | Structure (SMILES) | also measured
9 | N#Cc1ccc(N(C(=O)c2ccn3ncc(-c4ccc(C(N)=O)cc4)c3c2)C2CC2)nc1 [Example 120, 3-(4-Carbamoylphenyl)-N-(5-cyanopyridin-2-yl)-N-cyclopropylpyrazolo[1,5-a]pyridine-5-carboxamide] | –
19 | CNC(=O)c1ccc(-c2cnn3ccc(C(=O)N(c4ccc(Cl)cn4)C4CC4)cc23)cc1 [Example 124, N-(5-Chloropyridin-2-yl)-N-cyclopropyl-3-(4-(methylcarbamoyl)phenyl)pyrazolo[1,5-a]pyridine-5-carboxamide] | –
80 | CNC(=O)c1ccc(-c2cnn3ccc(C(=O)N(c4ccc(F)cn4)C4CC4)cc23)cc1 [Example 125, N-Cyclopropyl-N-(5-fluoropyridin-2-yl)-3-(4-(methylcarbamoyl)phenyl)pyrazolo[1,5a]pyridine-5-carboxamide] | –
67 | CNC(=O)c1ccc(-c2cnn3ccc(C(=O)N(c4ccc(C#N)cn4)C4CCCC4)cc23)cc1 [Example 126, N-(5-Cyanopyridin-2-yl)-N-cyclopentyl-3-(4-(methylcarbamoyl)phenyl)pyrazolo[1,5-a]pyridine-5-carboxamide] | –
49 | CCNC(=O)c1ccc(-c2cnn3ccc(C(=O)N(c4ccc(C#N)cn4)C4CC4)cc23)cc1 [Example 127, N-(5-Cyanopyridin-2-yl)-N-cyclopropyl-3-(4-(ethylcarbamoyl)phenyl)pyrazolo[1,5-a]pyridine-5-carboxamide] | –
12 | CNC(=O)c1ccc(-c2cnn3ccc(C(=O)N(c4ccc(F)c(F)c4)C4CC4)cc23)cc1 [Example 130, N-Cyclopropyl-N-(3,4-difluorophenyl)-3-(4-(methylcarbamoyl)phenyl)pyrazolo[1,5-a]pyridine-5-carboxamide] | –
324 | N#Cc1ccc(N(C(=O)c2ccn3ncc(-c4ccc(C(=O)NC5COC5)cc4)c3c2)C2CC2)nc1 [Example 131, N-(5-Cyanopyridin-2-yl)-N-cyclopropyl-3-(4-(oxetan-3-ylcarbamoyl)phenyl)pyrazolo[1,5-a]pyridine-5-carboxamide] | –
29 | CNC(=O)c1ccc(-c2cnn3ccc(C(=O)N(c4ccc(C(F)(F)F)cn4)C4CC4)cc23)cc1 [Example 132, N-Cyclopropyl-3-(4-(methylcarbamoyl)phenyl)-N-(5-(trifluoromethyl)pyridin-2-yl)pyrazolo[1,5-a]pyridine-5-carboxamide] | –
4 | N#Cc1ccc(N(C(=O)c2ccn3ncc(-c4ccc(C(N)=O)cc4)c3c2)C2CC2)cc1 [Example 134, 3-(4-carbamoylphenyl)-N-(4-cyanophenyl)-N-cyclopropylpyrazolo[1,5-a]pyridine-5-carboxamide] | –
1 | NC(=O)c1ccc(-c2cnn3ccc(C(=O)N(c4ccc(F)c(F)c4)C4CC4)cc23)cc1 [Example 135, 3-(4-Carbamoylphenyl)-N-cyclopropyl-N-(3,4-difluorophenyl)pyrazolo[1,5-a]pyridine-5-carboxamide] | –
10 | N#Cc1ccc(N(C(=O)c2ccn3ncc(-c4ccc(C(N)=O)nc4)c3c2)C2CC2)cc1 [Example 138, 3-(6-Carbamoylpyridin-3-yl)-N-(4-cyanophenyl)-N-cyclopropylpyrazolo[1,5-a]pyridine-5-carboxamide] | –
30 | N#Cc1ccc(N(C(=O)c2ccn3ncc(-c4ccc(C(N)=O)cn4)c3c2)C2CC2)nc1 [Example 139, 3-(5-Carbamoylpyridin-2-yl)-N-(5-cyanopyridin-2-yl)-N-cyclopropylpyrazolo[1,5-a]pyridine-5-carboxamide] | –
2 | CNC(=O)c1ccc(-c2cnn3ccc(S(=O)(=O)N(c4ccc(C#N)cn4)C4CC4)cc23)cc1 [Example 164, 4-(5-(N-(5-Cyanopyridin-2-yl)-N-cyclopropylsulfamoyl)pyrazolo[1,5-a]pyridin-3-yl)-N-methylbenzamide] | –
3 | N#Cc1ccc(N(C2CC2)S(=O)(=O)c2ccn3ncc(-c4ccc(C(N)=O)cc4)c3c2)nc1 [Example 165, 4-(5-(N-(5-cyanopyridin-2-yl)-N-cyclopropylsulfamoyl)pyrazolo[1,5-a]pyridin-3-yl)benzamide] | –
